Laboratory results as given in patent publication US10604480B2, “(Thio, oxo, and seleno) semicarbazone derivatives and their use for treating cancer” (RUTGERS, THE STATE UNIVERSITY OF NEW JERSEY, priority 2015, dated 2020).

Tests used:
[1] = Liposome import assay (RZ-3 fluorescence); settings: for Zn2+ shuttling into liposomes: external [Zn2+]free 10 μM
Method: However, in complete media containing 10% fetal bovine serum (FBS), Zn^2+-binding proteins from the serum (e.g. albumin) necessarily compete for Zn^2+ with any putative MC, making the effective [Zn^2+]free much lower than [Zn^2+]total.
(§1) DOPC-liposomes were prepared by film rehydration and extrusion followed by gel filtration and diluted to an OD600=0.06 in buffer. The size distribution of the liposomes was determined by dynamic light scattering (DLS) using a Malvern Zetasizer Nano ZS. Fluorescence measurements were taken on a Horiba Fluoromax-4 spectrofluorimeter in a 5×5 mm quartz cuvette with λex/λem=550/572 nm for RZ-3 and 490/515 nm for calcein. Initial Zn^2+ import/export was quantified by fitting the first 10-30 s of data after each treatment to a line and converted to units of flux using the following Eqn 1:
[formula] where Ji is the initial flux, ΔF/Δt is the slope of the fit line, Fmax is RZ-3 fluorescence in the presence of saturating Zn^2+ and 1% TritonX-100, Fmin is RZ-3 fluorescence in the presence of excess EDTA and 1% TritonX-100, [RZ3] is the concentration of encapsulated RZ-3, and SA/Vol is the surface area to volume ratio calculated assuming hollow spheres of the mean diameter determined by DLS. Intracellular [Zn^2+]free Imaging

HEK293 cells = experiment: Intracellular [Zn2+]free imaging with FluoZin-3-AM, HEK293 cells; type: cell-based; settings: for increase of intracellular [Zn2+]free (FZ3-AM fluorescence): HEK293 (non-cancer, p53-WT), complete media, confocal microscopy
Method: (§2) To minimize the potential for Zn^2+ contamination and contributions from poorly defined elements in complete media (e.g. FBS), cells were treated and imaged in Ca^2+ and Mg^2+-free Earle's Balanced Salt Solution supplemented with 10 mM HEPES pH 7.4 (EBSS/H (−)Ca/Mg). Excess ZnCl2 with the Zn^2+ ionophore pyrithione (PYR) was used as a positive control. Excess membrane-permeable Zn^2+ chelator N,N,N′,N′-tetrakis(2-pyridylmethyl)ethane-1,2-diamine (TPEN) was used as a negative control.
To normalize for differential dye loading, cells were then sequentially treated with excess PYR/ZnCl2, imaged, treated with TPEN, and imaged again. PYR/ZnCl2 and TPEN served to saturate and apoize the intracellular FZ3, respectively.
TOV112D or HEK293 cells (40,000 cells/well) were plated on either 8-well BD Falcon chambered culture slides (Corning Life Sciences) or 8-chambered #1.5 Nunc Lab-Tek II chambered coverglasses (Thermo Scientific) treated with poly-L-lysine. After 48 h, cells were washed 2×5 m in serum-free media and incubated with 1 μM FZ3-AM for 40 m at 37° C. Cells were then washed 2×5 m in either EBSS/H (−)Ca/Mg or phenol-red free DMEM+10% FBS containing the indicated treatments for 20 m before imaging. For nuclear colocalization, 1 μg/mL Hoechst 33342 was also included. Cells were imaged using a Zeiss LSM50 META NLO confocal microscope equipped with 37° C. environmental control chamber. FZ3 and Hoechst 33342 were excited at 488 nm (argon laser) and 790 nm (Chameleon Ti:sapphire laser), respectively. To determine the kinetics of fluorescence change, each background-subtracted image in the time-lapse series was integrated in ImageJ and normalized to the integrated fluorescence of the first frame after treatment. For quantification of intracellular [Zn^2+]free, each cell was analyzed in the treated, 50 μM PYR/ZnCl2 (1:1), and 100 μM TPEN images by taking the mean fluorescence of an ROI inside the cell subtracted by an ROI immediately outside the cell measured in ImageJ. The [Zn^2+]free for each cell was then calculated by Eqn 2:
[formula] […] To minimize the effects of outliers the lowest and highest 5% of cells in each series were rejected, and the remaining values averaged to give the value from that experiment. The number of cells analyzed in each trial ranged from 54-163. For nuclear colocalization, treated, PYR/ZnCl2, and TPEN treated images costained with Hoechst 33342 were aligned and each pixel subjected to Eqn. 2 in MATLAB (MathWorks).

TOV112D cells = experiment: Intracellular [Zn2+]free imaging with FluoZin-3-AM, TOV112D cells; type: cell-based; settings: ZMC1 alone without ZnCl2, EBSS/H (−)Ca/Mg
Method: as §2
To normalize for differential dye loading, cells were then sequentially treated with excess PYR/ZnCl2, imaged, treated with TPEN, and imaged again. […]
TOV112D or HEK293 cells (40,000 cells/well) were plated on either 8-well BD Falcon chambered culture slides (Corning Life Sciences) or 8-chambered #1.5 Nunc Lab-Tek II chambered coverglasses (Thermo Scientific) treated with poly-L-lysine. […] To determine the kinetics of fluorescence change, each background-subtracted image in the time-lapse series was integrated in ImageJ and normalized to the integrated fluorescence of the first frame after treatment. For quantification of intracellular [Zn^2+]free, each cell was analyzed in the treated, 50 μM PYR/ZnCl2 (1:1), and 100 μM TPEN images by taking the mean fluorescence of an ROI inside the cell subtracted by an ROI immediately outside the cell measured in ImageJ. […]

[2] = Liposomal leakage assay (calcein) and liposome size distribution
Method: To ensure that the fluorescence results were due to Zn^2+ transport and not to non-specific disruption of liposomal membranes, a liposomal leakage assay was performed using the self-quenching fluorophore calcein. When calcein is encapsulated at concentrations above 4 mM its fluorescence is decreased via self-quenching. Leakage is detected by a fluorescence increase as the dye dilutes and its fluorescence dequenches. […] Disruption of liposomes can also be detected by alteration of their size distribution.
as §1, with “1: […]” for “1:”

With O=C(O)CN(CC(=O)O)CC(=O)O [NTA] the “ability to cross liposomal or cellular membranes” value [1] was “cannot cross either liposomal or cellular membranes”, the “Zn2+ shuttling into liposomes” value [1] was “did not” and the “increase of intracellular [Zn2+]free (FZ3-AM fluorescence)” value (“increase of intracellular [Zn2+]free” for short) (HEK293 cells) was “did not”.

In the case of C/C(=N\NC(=S)N1CCC1)c1ccccn1 [ZMC1], the “increase in intracellular [Zn2+]free, ZMC1 alone” value (TOV112D cells) is reported as “neither cell type showed an increase”, the “ability to cross liposomal or cellular membranes” value [1] is reported as “can cross biological membranes both as free drug and drug-Zn^2+ complex” and the “RZ-3 fluorescence after reversing [Zn2+]free gradient with excess external EDTA” value ([1]; ZMC1 added after EDTA, export of Zn2+ from liposomes) is reported as “time dependent decrease”. For the same molecule, the “calcein fluorescence increase (liposome leakage)” value ([2]; highest concentrations of ZMC1 and ZnCl2) was “a significant fluorescence increase was not detected”, the “size distribution of liposomes” value ([2]; highest concentrations of ZnCl2 and ZMC1) was “identical to that of untreated liposomes” and the “increase of intracellular [Zn2+]free” value (HEK293 cells) was “increased”. For the same molecule, the “increase in intracellular [Zn2+]free, ZMC1 alone” value (HEK293 cells; HEK293, ZMC1 alone without ZnCl2, EBSS/H (−)Ca/Mg) was “neither cell type showed an increase”.

With C/C(=N\NC(=O)N1CCC1)c1ccccn1 [Example A6] the “Zn2+ shuttling into liposomes” value [1] was “shuttled Zn^2+ into the liposomes” and the “increase of intracellular [Zn2+]free” value (HEK293 cells) was “did not”.
